Assay results reported in patent US7238668B1, “Inhibition of lymphocyte adherence with CS-1-peptides and fragments thereof” (Fred Hutchinson Cancer Research Center, priority 1989, dated 2007).
Ends that are not written are not given here.

Tests used:
Jurkat cells = assay: Jurkat cell adhesion to surfaces coated with peptide-rsa conjugates; assay type: cell-based, human; conditions: Jurkat; FIG. 12; 5 ug/ml peptide; 30 min
Procedure: ^51Cr-labeled Jurkat cells ([…]) were incubated on surfaces coated with varying concentrations of peptide-rsa conjugates starting at 50 ug/ml (w/v) fragment or peptide (based on peptide not peptide-conjugate weight). […] (No adhesion=no measurable adhesion above negative controls.)
(§1) Adhesion of various hematopoetic cell lines to CS-1 (open bars; FIG. 12) or LDV minimal peptide-coated surfaces (cross-hatched bars; FIG. 12) was tested as follows: Jurkat (T lymphoblastoid), A375 (melanoma), U937 (monocytic), Ramos (B lymphoblastoid), and ST-1 (EBV transformed B lymphoblastoid) cells were allowed to adhere to CS-1-rsa or LDVPST-rsa (5 ug/ml peptide) coated surfaces for 30 min at 37° C. At the end of this time the non-adherent cells were washed off and the adherent cells were solubilized in NaOH/SDS and quantitated in a gamma counter. The results are expressed as bound counts per minute.

A375 melanoma cells = assay: A375 melanoma cell adhesion to peptide-rsa coated surfaces; assay type: cell-based, human; conditions: FIG. 12, 5 ug/ml peptide, 30 min
Procedure: as §1

Jurkat = assay: Inhibition of Jurkat cell adhesion to plasma fibronectin and its fragments; assay type: cell-based, human
Procedure: (§2) Antibodies that would alter cell adhesion to purified plasma fibronectin, tryptic fragments and CS peptides were identified as previously described (Wayner and Carter, 1987). […] The plates were blocked with PBS supplemented with 10 mg/ml heat denatured BSA (HBSA). T lymphocyte or HT1080 cells were labeled with Na2 ^51CrO4 (50 μlCi/ml for 2–4 hr), washed, and 5×10^4 HT1080 or cultured T cells or […] were incubated with hybridoma culture supernatants (1:2 dilution in PBS supplemented with 1 mg/ml heat denatured BSA) or control myeloma cell culture supernatant for 15 minutes at room temperature. The cells were allowed to adhere to the protein-coated surfaces in the presence of the hybridoma supernatants for 15–30 minutes (HT1080) or 2–4 hours (lymphocytes) at 37° C. Non-adherent cells were removed by washing with PBS, and the adherent cells were dissolved in SDS/NaOH and bound ^51Cr-cpm were quantitated in a gamma counter.

[1] = test system: T lymphocytes (Jurkat or Molt 4 cells); assay: T lymphocyte adhesion to plasma fibronectin, tryptic fragments and CS peptides; assay type: cell-based, human
Procedure: as §2
Human plasma fibronectin was a generous gift from Drs. Horowitz and R. Schulman (New York Blood Center, N.Y.). […] Two overlapping peptides spanning the initial 48 residues of the IIICS region of human fibronectin (CS-1 and CS-2) were synthesized and coupled to rabbit IgG as described (Humphries et al., 1986, and Humphries et al., 1987, J. Biol. Chem. 262:6886–6892).

[2] = test system: LAD (B) lymphocyte adhesion to HUVE monolayers; assay: Endothelial cell adhesion assay, LAD cells on HUVE monolayers; assay type: cell-based, human; conditions: Table XI
Procedure: (§3) HUVEs were incubated with IL-1 β (1 ng/ml) or in some experiments with TNF α (10 ng/ml) for 6–24 hours. At the end of this incubation the HUVE monolayers were washed and used in the adhesion assay.
(§4) Human umbilical vein endothelial cells (HUVEs) were cultured in 48 well plates as described (supra). To measure adherence of lymphocytes to HUVE monolayer cultures, lymphocytes were labeled with Na2 ^51CrO4 (50 μCi/ml) for 2–4 hours), washed, and then 10^5 lymphocytes were incubated with HUVE monolayers in the presence or absence of inhibitory antibodies or CS-1 derived peptides. The lymphocytes were allowed to adhere for 30 minutes at 37°. Non-adherent cells were subsequently removed by washing with PBS, and the adherent cells were dissolved in SDS/NaOH. Bound ^51Cr-cpm were quantitated in a gamma counter. In some experiments, endothelial cells were activated prior to the adhesion assay by incubating with IL-1 β (1 ng/ml) or […] (10 ng/ml) for 6–24 hours in defined CS-100 media (Cell Systems, Seattle, Wash.).

[3] = test system: Ramos (B) lymphocyte adhesion to HUVE monolayers; assay: Endothelial cell adhesion assay, Ramos cells on HUVE monolayers; assay type: cell-based, human; conditions: Table XI
Procedure: as §3, §4

[4] = test system: Jurkat (T) lymphocyte adhesion to HUVE monolayers; assay: Endothelial cell adhesion assay, Jurkat cells on HUVE monolayers; assay type: cell-based, human; conditions: Table XI
Procedure: as §3, §4

fibroblasts = assay: Inhibition of fibroblast adhesion to plasma fibronectin; assay type: cell-based
Procedure: as §2

K562-1 cells = assay: Inhibition of K562 cell adhesion to plasma fibronectin and fragments; assay type: cell-based, human
integrin receptor α4β1 = target: T1, integrin receptor α4β1 (human, UniProt P13612 34-1032; P05556 21-798); assay: T lymphocyte adhesion to coated fragments
T1 construct: whole, on cells; also called α4β1 extracellular matrix receptor; VLA 4
T1 sequence (P13612 34-1032, form in doubt, chain 1 of 2): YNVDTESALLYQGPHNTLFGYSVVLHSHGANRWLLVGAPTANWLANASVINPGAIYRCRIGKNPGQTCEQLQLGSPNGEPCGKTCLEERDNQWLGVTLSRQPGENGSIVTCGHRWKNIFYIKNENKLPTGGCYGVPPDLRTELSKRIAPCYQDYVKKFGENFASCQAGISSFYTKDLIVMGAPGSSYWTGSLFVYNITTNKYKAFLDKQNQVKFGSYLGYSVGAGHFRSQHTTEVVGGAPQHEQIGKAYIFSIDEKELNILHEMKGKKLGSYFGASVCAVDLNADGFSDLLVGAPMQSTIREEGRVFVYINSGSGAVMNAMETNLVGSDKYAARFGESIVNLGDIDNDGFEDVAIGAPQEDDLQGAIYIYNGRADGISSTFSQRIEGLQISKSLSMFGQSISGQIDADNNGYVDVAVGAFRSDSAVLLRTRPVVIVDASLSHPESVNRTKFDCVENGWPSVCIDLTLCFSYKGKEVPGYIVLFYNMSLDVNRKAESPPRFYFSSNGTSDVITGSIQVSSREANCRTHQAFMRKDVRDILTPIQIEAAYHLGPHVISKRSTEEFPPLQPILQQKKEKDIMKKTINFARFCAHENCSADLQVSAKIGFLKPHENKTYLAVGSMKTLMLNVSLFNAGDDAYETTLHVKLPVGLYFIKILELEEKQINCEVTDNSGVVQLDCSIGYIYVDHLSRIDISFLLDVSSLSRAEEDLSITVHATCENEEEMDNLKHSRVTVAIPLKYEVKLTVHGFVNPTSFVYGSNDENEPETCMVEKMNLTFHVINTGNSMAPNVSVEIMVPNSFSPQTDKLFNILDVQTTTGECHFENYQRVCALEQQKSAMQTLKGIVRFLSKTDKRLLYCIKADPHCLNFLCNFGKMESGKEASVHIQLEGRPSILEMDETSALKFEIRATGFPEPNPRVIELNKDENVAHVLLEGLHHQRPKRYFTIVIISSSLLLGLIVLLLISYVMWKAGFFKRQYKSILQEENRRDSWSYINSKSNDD
T1 sequence (P05556 21-798, form in doubt, chain 2 of 2): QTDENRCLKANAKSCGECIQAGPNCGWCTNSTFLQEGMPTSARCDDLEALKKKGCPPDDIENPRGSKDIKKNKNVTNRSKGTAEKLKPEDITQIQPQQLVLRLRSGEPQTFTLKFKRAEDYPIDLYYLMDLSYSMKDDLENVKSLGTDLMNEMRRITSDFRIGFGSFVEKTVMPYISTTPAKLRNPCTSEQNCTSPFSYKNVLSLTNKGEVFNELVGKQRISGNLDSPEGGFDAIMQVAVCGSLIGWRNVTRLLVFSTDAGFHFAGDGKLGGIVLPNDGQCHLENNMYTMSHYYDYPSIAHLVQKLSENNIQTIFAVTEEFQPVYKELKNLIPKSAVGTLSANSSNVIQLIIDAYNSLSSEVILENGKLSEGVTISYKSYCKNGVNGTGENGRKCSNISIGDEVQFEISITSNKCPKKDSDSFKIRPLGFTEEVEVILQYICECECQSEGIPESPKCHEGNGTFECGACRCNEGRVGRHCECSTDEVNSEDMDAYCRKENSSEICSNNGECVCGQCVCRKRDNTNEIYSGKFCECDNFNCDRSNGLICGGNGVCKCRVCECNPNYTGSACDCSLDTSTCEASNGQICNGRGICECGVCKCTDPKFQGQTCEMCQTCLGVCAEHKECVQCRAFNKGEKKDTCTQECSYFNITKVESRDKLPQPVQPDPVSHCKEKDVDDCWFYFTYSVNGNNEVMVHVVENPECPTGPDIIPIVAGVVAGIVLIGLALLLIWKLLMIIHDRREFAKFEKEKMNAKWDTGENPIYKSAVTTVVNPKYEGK

LDVPST-RSA: LDVPST conjugated to rabbit serum albumin (also: conjugated to rabbit serum albumin, site not given here)
Cell adhesion to conjugate-coated surfaces (Jurkat cells): only slightly
Cell adhesion to conjugate-coated surfaces (A375 melanoma cells): adhered

Arg-Gly-Asp-Ser (RGDS) [reference compound]
Inhibition of Jurkat cell adhesion to intact fibronectin (Jurkat; 1 mg/ml): 50%
Inhibition of Jurkat cell adhesion to the 80 kDa fragment (Jurkat; 1 mg/ml): 100%
Effect on Jurkat cell adhesion to the 38 kDa fragment (Jurkat; up to 1 mg/ml): unaffected
Inhibition of adhesion to plasma fibronectin ([1]; Molt 4 or Jurkat cells): 50–70%
Adhesion (cpm) +IL-1β ([2]; IL-1β activated HUVE, no peptide 71408): 102076 cpm
Adhesion (cpm) Basal ([2]; basal HUVE, no peptide 44860): 70652 cpm
Adhesion (cpm) +IL-1β ([3]; IL-1β activated HUVE, no peptide 12936): 28104 cpm
Adhesion (cpm) Basal ([3]; basal HUVE, no peptide 2724): 16920 cpm
Adhesion (cpm) +IL-1β ([4]; IL-1β activated HUVE, no peptide 314848): 357616 cpm
Adhesion (cpm) Basal ([4]; basal HUVE, no peptide 161092): 298688 cpm
Inhibition of adhesion to plasma fibronectin (fibroblasts): 80–90%
Inhibition of adhesion to plasma fibronectin (K562-1 cells): 100%

B1: 38 kDa tryptic fragment of plasma fibronectin (ligand, human, UniProt P02751-8 1589-1968, looked up)
chain: TAGPDQTEMTIEGLQPTVEYVVSVYAQNPSGESQPLVQTAVTTIPAPTDLKFTQVTPTSLSAQWTPPNVQLTGYRVRVTPKEKTGPMKEINLAPDSSSVVVSGLMVATKYEVSVYALKDTLTSRPAQGVVTTLENVSPPRRARVTDATETTITISWRTKTETITGFQVDAVPANGQTPIQRTIKPDVRSYTITGLQPGTDYKIYLYTLNDNARSSPVVIDASTAIDAPSNLRFLATTPNSLLVSWQPPRARITGYIIKYEKPGSPPREVVPRPRPGVTEATITGLEPGTEYTIYVIALKNNQKSEPLIGRKKTDELPQLVTLPHPNLHGPEILDVPSTVQKTPFVTHPGYDTGNGIQLPGTSGQQPSVGQQMIFEEHGFR
notes: domain: Hep II and first 67 residues of IIICS (38 kDa tryptic fragment); also called CTCBD fragment
Efficiency in mediating T lymphocyte adhesion, on a molar basis ([1]; compared with the 58 kDa fragment): three times more efficient than the 58 kDa fragment
efficiency in mediating T lymphocyte adhesion relative to the 58 kDa fragment (molar basis) (integrin receptor α4β1): 3 times
